Experimental data taken from patent US7323167B2, “Method of treatment with modified arginine deiminase” (Polaris Group, priority 1997, dated 2008).

Tests used:
[1] = target: T1, Mycoplasma arginini arginine deiminase (ADIPROT, ATCC 23243), recombinant, expressed in E. coli, SEQ ID NO: 1 (Mycoplasmopsis arginini, UniProt P23793); assay: Kinetic characterization (Km, Vmax, affinity) of recombinant ADI with arginine, quantifying citrulline production; assay type: biochemical; conditions: about; range given for the enzymes of the three Mycoplasma species; various concentrations of arginine
T1 construct: made in house; host or cells: E. coli
Description: (§1) Cultures of Mycoplasma arginini (ATCC 23243), Mycoplasma hominus (ATCC 23114) and Mycoplasma arthritides (ATCC 23192) were obtained from the American Type Culture Collection, Rockville, Md.
(§2) Arginine deiminase was cloned from Mycoplasma arginini, Mycoplasma hominus and Mycoplasma arthritides and expressed in E. coli as previously described by S. Misawa et al, J. Biotechnology, 36:145-155 (1994), the disclosure of which is hereby incorporated herein by reference in its entirety. The top amino acid sequence, identified as ADIPROT, is from Mycoplasma arginini; the middle amino acid sequence, identified as ARTADIPRO, is from Mycoplasma arthritides; and the bottom amino acid sequence, identified as HOMADIPRO, is from Mycoplasma hominus. Each of the amino acid sequences are more than 96% conserved. […] The pH optima was determined using a citrate buffer (pH 5-6.5), a phosphate buffer (pH 6.5-7.5) and a borate buffer (pH 7.5-8.5). The Km and Vmax were determined by incubating the enzyme with various concentrations of arginine and quantifying citrulline production. The Km for the various enzymes was about 0.02 to 0.06 μM and the Vmax was about 15-20 μmol/min/mg, the values of which are within standard error of each other.
(§3) The proteins from each of the above three species of Mycoplasma have approximately 95% homology and are readily purified by column chromatography. […]

[2] = target: T2, Mycoplasma hominus arginine deiminase (HOMADIPRO, ATCC 23114), recombinant, expressed in E. coli, SEQ ID NO: 3 (Metamycoplasma hominis, UniProt P41141); assay: as above; assay type: biochemical; conditions: about; range given for the enzymes of the three Mycoplasma species; various concentrations of arginine
T2 construct: tag not given
Description: as §1, §2, §3

T1 sequence (P23793 whole entry E126K): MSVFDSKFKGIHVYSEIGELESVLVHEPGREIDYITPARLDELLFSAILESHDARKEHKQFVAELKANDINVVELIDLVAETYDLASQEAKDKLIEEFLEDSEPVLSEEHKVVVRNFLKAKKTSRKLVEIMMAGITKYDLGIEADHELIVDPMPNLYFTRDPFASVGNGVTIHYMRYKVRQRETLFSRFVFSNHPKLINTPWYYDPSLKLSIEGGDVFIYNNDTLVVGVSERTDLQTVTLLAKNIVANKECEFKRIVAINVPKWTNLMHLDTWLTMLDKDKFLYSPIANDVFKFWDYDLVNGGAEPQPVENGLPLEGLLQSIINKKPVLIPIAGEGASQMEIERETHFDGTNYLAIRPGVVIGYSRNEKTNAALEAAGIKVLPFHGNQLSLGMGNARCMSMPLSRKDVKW
T2 sequence (P41141 whole entry): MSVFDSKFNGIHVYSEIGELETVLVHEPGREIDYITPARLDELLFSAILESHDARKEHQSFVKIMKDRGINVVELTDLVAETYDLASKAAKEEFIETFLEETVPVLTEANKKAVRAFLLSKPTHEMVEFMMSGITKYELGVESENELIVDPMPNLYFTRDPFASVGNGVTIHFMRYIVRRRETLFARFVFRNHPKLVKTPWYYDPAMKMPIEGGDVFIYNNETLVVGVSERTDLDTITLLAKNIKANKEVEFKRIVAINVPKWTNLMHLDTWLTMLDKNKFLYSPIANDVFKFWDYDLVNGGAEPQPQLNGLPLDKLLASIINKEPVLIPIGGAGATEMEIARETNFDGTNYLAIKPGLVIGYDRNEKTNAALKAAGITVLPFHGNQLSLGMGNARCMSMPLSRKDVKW

N=C(N)NCCC[C@H](N)C(=O)O [arginine, L-arginine]
Vmax [1]: 15 to 20 µmol/min/mg
Vmax [2]: 15 to 20 µmol/min/mg
